Measured values published in patent publication US8426406B2, “Glucocorticoid receptor agonist comprising 2,2,4-trimethyl-6-phenyl-1,2-dihydroquinoline derivatives having substituted oxy group” (Santen Pharmaceutical Co., Ltd., priority 2008, dated 2013).

What was measured:
[1] = system: choroidal neovascularization (CNV) model in rats; test: Evaluation test for inhibitory effect of choroidal neovascularization (laser induced CNV model in rats); assay type: in vivo; settings: Brown Norway rats, 1% (w/v) suspension eye drops four times a day or 20 mg/mL subconjunctival injection (route not given), vs vehicle, mean of 7-8 eyes in 4 rats
Protocol: The choroidal neovascularization (CNV) model in rats is known as one of the popular methods for evaluating the CNV inhibitory effect of drugs. This method is reported in Graefe's Arch. Cli. Exp. Ophthalmol., 235, 313-319 (1997). According to this method, the CNV examinations were performed to evaluate the CNV inhibitory effect of test compounds by comparing the incidence rates of CNV in vehicle group (control group) with test compound-treated groups.
For eye drop administration, a 1% (w/v) test compound suspension was prepared by adding 0.5% polysorbate 80/saline to the test compound. For subconjunctival injection, a 20 mg/mL test compound suspension was prepared by adding 0.5% hydrogenated castor oil/saline to the test compound.
1) Brown Norway male rats (7-8 weeks, 140-240 g) were anesthetized with intramuscular injection (1 mL/kg) of the mixed solution (5% ketamine HCl: 2% xylazine HCl=7:1).
2) After mydriasis using tropicamide phenylephrine hydrochloride eye drops (trade name Mydrin P), laser photocoagulation of bruch's membrane in rats was performed with krypton laser photocoagulation machine. Laser irradiation was performed at 8-9 points per eye avoiding thick retinal blood vessels in ocular fundus and focusing on the depth of retina. The conditions were 100 μm spot size, 100 mW power, 0.1 second duration.
3) After laser photocoagulation, photographs of ocular fundus were taken and the laser photocoagulation (laser irradiation) points were confirmed.
1) In case of eye drops administration, a test compound suspension was administrated four times a day from laser irradiation day (the 1st day) to the 8th day. In case of subconjunctival injection, a 50 μL test compound suspension was injected into conjunctivae just after laser irradiation.
2) In vehicle group (control group), 0.5% polysorbate 80/saline or 0.5% hydrogenated castor oil/saline was used instead of a test compound suspension. And the test was performed according to the method 1).
1) 7 days after laser irradiation, 0.1 mL of 10% fluorescein was injected into rat tail vein and fluorescein angiography was performed.
2) When the fluorescent leakage was not detected in the fluorescent angiography, the spot was judged to be a negative spot. When the fluorescent leakage was detected, the spot was judged to be a positive spot. When the fluorescent leakage was detected as a little leakage, two spots were counted as one positive spot.
3) The neovascular incidence rate was calculated according to the equation 1. According to the equation 2, the ratio of neovascular incidence rate in test compound group to vehicle group was calculated. Neovascular incidence rate(%)=(Positive spots/all spots)×100 (Equation 1) Angiogenic inhibition ratio in test compound group(%)=(1−Ax/Ao)×100 (Equation 2)
Ao: Neovascular incidence rate in vehicle group (control group)
Ax: Neovascular incidence rate in test compound group

[2] = system: IL-6 production induced by lipopolysaccharide (LPS) in human corneal epithelial cells; test: Evaluation test for GR agonist activity: inhibition of LPS-induced IL-6 production in human corneal epithelial cells (HCE-T); assay type: cell-based; settings: Corneal epithelial cell, 10 μL of 100 μM test compound solution per well, 4 hours incubation, efficacy relative to DEX
Method in brief: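 SV40-immortalized HCE-T cells were treated with test compound (100 μM solution, stock before dilution into well) plus LPS (1 μg/mL solution, likewise pre-dilution) for 4 hours in 10% FBS-DMEM/F12. IL-6 in supernatants was measured by HTRF. Inhibition was calculated relative to LPS-plus-DMSO and no-LPS controls, and efficacy was expressed as % of DEX inhibition.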

Compound	Angiogenic inhibition ratio (%) [1]	Emax [2]
COc1ccc(OC(=O)c2cccnc2)cc1-c1ccc2c(c1COc1cc(F)ccc1C)C(C)=CC(C)(C)N2 [Compound 1-19, 5-(5-Fluoro-2-methylphenoxymethyl)-6-[2-methoxy-5-(pyridin-3-ylcarbonyloxy)phenyl]-2,2,4-trimethyl-1,2-dihydroquinoline]	30%	78%
COc1cc(OC(=O)c2cccnc2C)ccc1-c1ccc2c(c1COc1cc(F)ccc1C)C(C)=CC(C)(C)N2 [Compound 1-49, 5-(5-Fluoro-2-methylphenoxymethyl)-6-[2-methoxy-4-(2-methylpyridin-3-ylcarbonyloxy)phenyl]-2,2,4-trimethyl-1,2-dihydroquinoline]	23%	96%
COc1cc(OC(=O)N2CCOCC2)ccc1-c1ccc2c(c1COc1cc(F)ccc1C)C(C)=CC(C)(C)N2 [Compound 6-31, 5-(5-Fluoro-2-methylphenoxymethyl)-6-[2-methoxy-4-(morpholin-4-ylcarbonyloxy)phenyl]-2,2,4-trimethyl-1,2-dihydroquinoline]	45%	86%
COc1ccc([N+](=O)[O-])cc1OCc1c(-c2ccc(OS(=O)(=O)C3CC3)cc2OC)ccc2c1C(C)=CC(C)(C)N2 [Compound 4-8, 6-(4-Cyclopropylsulfonyloxy-2-methoxyphenyl)-5-(2-methoxy-5-nitrophenoxymethyl)-2,2,4-trimethyl-1,2-dihydroquinoline]	26%	78%
COc1cc(OC(=O)N(C)C)ccc1-c1ccc2c(c1COc1cc(F)ccc1C)C(C)=CC(C)(C)N2 [Compound 6-3, 6-(4-Dimethylaminocarbonyloxy-2-methoxyphenyl)-5-(5-fluoro-2-methylphenoxymethyl)-2,2,4-trimethyl-1,2-dihydroquinoline]	38%	83%
COc1ccccc1NCc1c(-c2ccc(OC(=O)N3CCOCC3)cc2OC)ccc2c1C(C)=CC(C)(C)N2 [Compound 6-35, 6-[2-Methoxy-4-(morpholin-4-ylcarbonyloxy)phenyl]-5-(2-methoxyphenylaminomethyl)-2,2,4-trimethyl-1,2-dihydroquinoline]	26%	87%
CCCC(=O)Oc1ccc(-c2ccc3c(c2COc2cc(F)ccc2C)C(C)=CC(C)(C)N3)c(OC)c1 [Compound 1-9, 6-(4-Butyryloxy-2-methoxyphenyl)-5-(5-fluoro-2-methylphenoxymethyl)-2,2,4-trimethyl-1,2-dihydroquinoline]	31%	79%
COc1cc(OC(=O)c2ccncc2)ccc1-c1ccc2c(c1COc1cc(F)ccc1C)C(C)=CC(C)(C)N2 [Compound 1-33, 5-(5-Fluoro-2-methylphenoxymethyl)-6-[2-methoxy-4-(pyridin-4-ylcarbonyloxy)phenyl]-2,2,4-trimethyl-1,2-dihydroquinoline]	29%	82%
COc1cc(OC(=O)C(C)C)ccc1-c1ccc2c(c1COc1cc(F)ccc1C)C(C)=CC(C)(C)N2 [Compound 1-14, 5-(5-Fluoro-2-methylphenoxymethyl)-6-(4-isobutyryloxy-2-methoxyphenyl)-2,2,4-trimethyl-1,2-dihydroquinoline]	46%	79%
COc1cc(OS(=O)(=O)C(C)C)ccc1-c1ccc2c(c1COc1cc(F)ccc1C)C(C)=CC(C)(C)N2 [Compound 4-5, 5-(5-Fluoro-2-methylphenoxymethyl)-6-(4-isopropylsulfonyloxy-2-methoxyphenyl)-2,2,4-trimethyl-1,2-dihydroquinoline]	38%	90%
COc1ccc(OC(=O)c2ccco2)cc1-c1ccc2c(c1COc1cc(F)ccc1C)C(C)=CC(C)(C)N2 [Compound 1-17, 5-(5-Fluoro-2-methylphenoxymethyl)-6-[5-(furan-2-ylcarbonyloxy)-2-methoxyphenyl]-2,2,4-trimethyl-1,2-dihydroquinoline]	35%	84%
